Laboratory results from paper PMC5290327, “SC83288 is a clinical development candidate for the treatment of severe malaria” (Nature Communications, 2017).
In brackets after ≈: the same amount, converted by molar mass. Where two headings read alike, the source gives them in different places.

Key:
5-HT2B (h) = target: T1, 5-HT2B (h) (Homo sapiens, UniProt P41595); assay: Radioligand binding; settings: control compound
T1 construct: Cerep (contract screening)
Experimental: (§1) The study was carried out by Cerep (Celle l'Evescault, France). An in vitro pharmacological profiling panel was designed to detect potential high-risk clinical adverse drug reactions. The panel comprised of 54 targets.
(§2) The specific ligand binding to the receptors was defined as the difference between the total binding and the non-specific binding determined in the presence of an excess of unlabelled ligand. Results were expressed as a per cent of control specific binding and as a per cent inhibition of control specific obtained in the presence of the test compounds. Results showing an inhibition (or stimulation) >50% were considered to represent significant effects of the test compounds. […] The IC50 values were determined by non-linear regression analysis of the competition curves generated with mean replicate values using Hill equation curve fitting. The inhibition constants (Ki) were calculated using the Cheng Prusoff equation.

[1] = test system: cytoplasmic free Ca2+ in P. falciparum HB3 trophozoites; assay: Ca2+ live imaging, Fluo-4; settings: SC compounds 10 and 20 μM; CPA 10 μM
[2] = target: Ca2+ channel (L, verapamil site); assay: Radioligand binding; settings: control compound
Experimental: as §1, §2

Plasmodium berghei = assay: Rodent malaria model; assay type: in vivo; settings: for Outcome: P. berghei
Experimental: This was the case for both an in vivo 4 day dosing regimen of 30 mg kg^−1 per day and an ex vivo one-cycle growth inhibition assay. […] Differential therapeutic efficacy in various rodent model systems is a well-established phenomenon and is typically associated with charged compounds, such as positively charged amidines and negatively charged phosphoric acid or carboxylic acid containing drugs. The phenomenon is explained based on selective uptake of charged compounds through parasite-induced channels, termed new permeation pathways, in the host cell plasma membrane and species-specific characteristics of the new permeation pathways.

CACO 2 cells = assay: Permeability assay; assay type: in vitro ADME; settings: Supplementary Table 2
Experimental: (§3) The study was conducted by Cyprotex (Macclesfield, United Kingdom). CACO 2 cells (Sigma-Aldrich, catalogue: 86010202) were seeded on Millipore Millicell plates and formed a confluent monolayer over 20 days before the experiment. On day 20, the tested compounds at a final concentration of 10 μM were added to the apical side of the membrane. The transport of the compound across the monolayer was monitored over a 2 h period by liquid chromatography (LC)–MS/MS quantification. The permeability coefficient (Papp) was calculated from the following equation: [drawing 1] , where dQ/dt is the rate of permeation of the drug across the cells, C0 the donor compartment concentration at time zero and A the area of the cell monolayer. C0 was obtained from analysis of the dosing solution at the start of the experiment.

P. falciparum strain Dd2 = assay: Growth inhibition assay, asexual blood stages; assay type: cell-based, Plasmodium falciparum
PK study = assay type: in vivo, rat; settings: rat, plasma, po; rats
Experimental: On the treatment day, all animals were weighed and the dosing volume was calculated for each individual animal according to its actual body weight. All animal were dosed once. Blood samples were taken at different time points and plasma was collected after centrifugation (10,000g, 10 min, 4 °C). Plasma samples were analysed by LC–MS/MS. […] All relevant observations were recorded. The PK studies in cynomolgus monkeys and beagle dogs were performed by the Laboratory of Pharmacology and Toxicology (LPT), Hamburg, and PK and toxicity studies in mice and rats were performed by the 4SC Discovery GmbH, Munich. PK parameters were obtained by a non-compartment analysis, using Kinetica 4.1 (Thermo Scientific).

Plasmodium vinckei = assay: Rodent malaria model; assay type: in vivo; settings: P. vinckei, 30 mg kg-1 i.p. 1x4 days
Excerpt: The two SC compounds were also active in the Plasmodium vinckei rodent malaria model system.

P. chabaudi = assay: Rodent malaria model; assay type: in vivo; settings: 10 mg kg-1 i.v. 1x4 days
HepG2 cells = assay: Cytotoxicity; settings: 10 μM
Permeability assay = assay type: in vitro ADME; settings: human; CACO 2 cells, 10 μM, apical side, 2 h
Experimental: as §3

[3] = In vitro metabolism in liver microsomes; settings: human microsome assay
Solubility in water = settings: for Solubility in H2O: Supplementary Table 2
TP (h) (TXA2/PGH2) = target: T2, TP (h) (TXA2/PGH2) (Homo sapiens, UniProt P21731); assay: Radioligand binding; settings: control compound
T2 construct: Cerep
T2 sequence (P21731 1-343): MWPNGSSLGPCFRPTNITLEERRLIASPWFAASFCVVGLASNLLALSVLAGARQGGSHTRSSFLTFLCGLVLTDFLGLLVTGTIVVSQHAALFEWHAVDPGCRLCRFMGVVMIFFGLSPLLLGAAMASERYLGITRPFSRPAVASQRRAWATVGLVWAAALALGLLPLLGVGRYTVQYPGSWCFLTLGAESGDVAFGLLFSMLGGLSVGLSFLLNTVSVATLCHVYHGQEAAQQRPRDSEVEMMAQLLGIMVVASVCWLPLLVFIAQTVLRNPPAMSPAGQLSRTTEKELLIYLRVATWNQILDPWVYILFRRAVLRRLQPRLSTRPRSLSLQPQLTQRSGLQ

a1 (non-selective) = assay: Radioligand binding; settings: control compound
Experimental: as §1, §2

Na+ channel (site 2) = assay: Radioligand binding; settings: control compound
a2 (non-selective) = assay: Radioligand binding; settings: control compound
Experimental: as §1, §2

CXCR2 (IL-8B) (h) = target: T3, CXCR2 (IL-8B) (h) (Homo sapiens, UniProt P25025); assay: Radioligand binding; settings: control compound
T3 construct: Cerep
T3 sequence (P25025 1-360): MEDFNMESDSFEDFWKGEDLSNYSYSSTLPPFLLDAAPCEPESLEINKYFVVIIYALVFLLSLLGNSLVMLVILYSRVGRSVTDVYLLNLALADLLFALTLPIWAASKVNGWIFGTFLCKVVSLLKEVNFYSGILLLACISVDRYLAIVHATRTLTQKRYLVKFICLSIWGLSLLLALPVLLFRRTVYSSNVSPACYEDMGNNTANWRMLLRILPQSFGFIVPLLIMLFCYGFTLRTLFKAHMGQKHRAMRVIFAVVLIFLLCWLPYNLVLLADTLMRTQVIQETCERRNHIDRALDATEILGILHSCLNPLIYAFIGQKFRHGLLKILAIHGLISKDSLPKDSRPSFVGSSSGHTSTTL

CCR1 (h) = target: T4, CCR1 (h) (Homo sapiens, UniProt P32246); assay: Radioligand binding; settings: control compound
T4 construct: Cerep
T4 sequence (P32246 1-355): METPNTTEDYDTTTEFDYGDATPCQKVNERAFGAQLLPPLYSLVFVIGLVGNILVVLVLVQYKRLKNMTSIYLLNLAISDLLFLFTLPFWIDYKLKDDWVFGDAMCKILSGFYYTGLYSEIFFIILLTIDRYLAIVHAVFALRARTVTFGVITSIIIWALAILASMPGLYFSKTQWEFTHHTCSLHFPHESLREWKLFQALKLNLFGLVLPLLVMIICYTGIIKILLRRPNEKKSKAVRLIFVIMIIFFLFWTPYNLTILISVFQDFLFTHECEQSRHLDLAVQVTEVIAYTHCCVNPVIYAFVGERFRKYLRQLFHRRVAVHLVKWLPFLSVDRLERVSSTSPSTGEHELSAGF

sst (non-selective) = assay: Radioligand binding; settings: control compound
Experimental: as §1, §2

[4] = read-out: Control specific binding IC50
[5] = read-out: Control specific binding Ki
[6] = Supplementary Table 2, read-out: In vitro IC50

T1 sequence (P41595 whole entry): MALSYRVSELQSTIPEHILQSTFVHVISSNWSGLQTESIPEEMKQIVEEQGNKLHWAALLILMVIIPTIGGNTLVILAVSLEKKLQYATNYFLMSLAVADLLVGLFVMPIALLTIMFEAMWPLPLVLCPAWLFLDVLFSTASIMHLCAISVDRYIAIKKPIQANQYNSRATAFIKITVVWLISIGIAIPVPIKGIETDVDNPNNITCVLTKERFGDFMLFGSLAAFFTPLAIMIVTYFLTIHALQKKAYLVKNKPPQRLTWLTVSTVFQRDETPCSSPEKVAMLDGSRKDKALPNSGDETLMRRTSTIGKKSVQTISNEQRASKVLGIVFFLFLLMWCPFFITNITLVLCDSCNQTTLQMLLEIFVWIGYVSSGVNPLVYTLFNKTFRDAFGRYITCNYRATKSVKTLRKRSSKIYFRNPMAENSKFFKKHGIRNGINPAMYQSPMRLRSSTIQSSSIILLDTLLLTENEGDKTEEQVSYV

COc1cc(CC(C)N)c(OC)cc1I (racemic) [(±)DOI, reference compound]
IC50 (5-HT2B (h); [4]): 5.1 nM | Ki (5-HT2B (h); [5]): 4.6 nM

CC(=O)C1=C(O)[C@@H]2[C@H]3c4c[nH]c5cccc(c45)C[C@H]3C(C)(C)N2C1=O [CPA, cyclopiazonic acid, reference compound]
effect on cytoplasmic free Ca^2+ [1]: induced a strong Ca^2+ responses

COc1ccc(CCN(C)CCCC(C#N)(c2cc(OC)c(OC)c(OC)c2)C(C)C)cc1OC (stereo not drawn) [D 600, reference compound]
IC50 [2, 4]: 67 nM | Ki [2, 5]: 34 nM

N=C(N)c1cccc(NC(=O)Nc2ccc(S(=O)(=O)NCc3ccccc3)cc2)c1 [SC08165]
Outcome (Plasmodium berghei; 50 mg kg-1 i.p. 1x4 days): inactive | Papp (CACO 2 cells): 1.22 10-6 cm s-1 | IC50 (P. falciparum strain Dd2; [6]): 134 nM

N=C(N)c1cccc(NC(=O)Nc2ccc(S(=O)(=O)NCc3ccc(S(N)(=O)=O)cc3)cc2)c1 [SC09064]
bioavailability (PK study): 3% | Outcome (Plasmodium berghei; 10 mg kg-1 i.v. 1x4 days): inactive | Outcome (Plasmodium berghei; 50 mg kg-1 i.p. 1x4 days): inactive | activity against P. berghei (Plasmodium berghei; in vivo): no activity | Outcome (Plasmodium vinckei): inactive | Outcome (P. chabaudi): inactive | Ames test (Ames test): negative | adverse effects on HepG2 cells (HepG2 cells): no adverse effects | Papp at 2 h, 10 μM (Permeability assay): 0.28 ×10⁻⁶ cm/s | metabolic stability, residual after 1 h of incubation [3]: 65% | solubility (Solubility in water; water): 316 µg/mL (≈ 629 µM) | IC50 (P. falciparum strain Dd2; Plasmodium falciparum, DD2, 72 h, Dd2, standard proliferation assay, 72 h exposure): 10 ± 3 nM

CCCN1CCN(C(=N)c2cccc(NC(=O)Nc3ccc(S(=O)(=O)NCc4ccc(S(N)(=O)=O)cc4)cc3)c2)CC1 [SC82367]
Papp (CACO 2 cells): 5.40 10-6 cm s-1 | Solubility in H2O (Solubility in water): > 1000 µg/mL | IC50 (P. falciparum strain Dd2; [6]): 7 nM

CC(C)N1CCN(C(=N)c2cccc(NC(=O)Nc3ccc(S(=O)(=O)NCc4ccc(S(N)(=O)=O)cc4)cc3)c2)CC1 [SC82486]
Papp (CACO 2 cells): 2.50 10-6 cm s-1 | Solubility in H2O (Solubility in water): 100 µg/mL (≈ 163 µM) | IC50 (P. falciparum strain Dd2; [6]): 38 nM

CCC(=O)N1CCN(C(=N)c2cccc(NC(=O)Nc3ccc(S(=O)(=O)NCc4ccc(S(N)(=O)=O)cc4)cc3)c2)CC1 [SC83289]
Papp (CACO 2 cells): 1.70 10-6 cm s-1 | Solubility in H2O (Solubility in water): 32 µg/mL (≈ 51 µM) | IC50 (P. falciparum strain Dd2; [6]): 1820 nM

N=C(c1cccc(NC(=O)Nc2ccc(S(=O)(=O)NCc3ccc(S(N)(=O)=O)cc3)cc2)c1)N1CCOCC1 [SC87507]
Papp (CACO 2 cells): 1.23 10-6 cm s-1 | IC50 (P. falciparum strain Dd2; [6]): 139 nM

CCCCC[C@H](O)/C=C/[C@H]1[C@@H]2CO[C@@H](C2)[C@@H]1C/C=C\CCCC(=O)O [U 44069, reference compound]
IC50 (TP (h) (TXA2/PGH2); [4]): 14 nM | Ki (TP (h) (TXA2/PGH2); [5]): 6.2 nM

COc1cc2nc(N3CCN(C(=O)c4ccco4)CC3)nc(N)c2cc1OC [prazosin, reference compound]
IC50 (a1 (non-selective); [4]): 0.82 nM | Ki (a1 (non-selective); [5]): 0.22 nM

COc1ccc(C(=O)O[C@H]2CC[C@@]3(C)[C@@H]4CC[C@H]5[C@]6(O)C[C@H](O)[C@@]7(O)[C@@H](CN8C[C@@H](C)CC[C@H]8[C@@]7(C)O)[C@]6(O)C[C@@]53O[C@]24O)cc1OC [veratridine, reference compound]
IC50 (Na+ channel (site 2); [4]): 10000 nM | Ki (Na+ channel (site 2); [5]): 9000 nM

COC(=O)[C@@H]1[C@H]2C[C@H]3c4[nH]c5ccccc5c4CCN3C[C@@H]2CC[C@@H]1O [yohimbine, reference compound]
IC50 (a2 (non-selective); [4]): 69 nM | Ki (a2 (non-selective); [5]): 30 nM

IL-8: control compound of the binding panel [reference compound]
IC50 (CXCR2 (IL-8B) (h); [4]): 0.063 nM | Ki (CXCR2 (IL-8B) (h); [5]): 0.029 nM

MIP-1a: control compound of the binding panel [reference compound]
IC50 (CCR1 (h); [4]): 0.06 nM | Ki (CCR1 (h); [5]): 0.03 nM

somatostatin-14: control compound of the binding panel [reference compound]
IC50 (sst (non-selective); [4]): 0.15 nM | Ki (sst (non-selective); [5]): 0.092 nM
